Assay results as given in paper PMC10257182, “Discovery of senolytics using machine learning” (Nature Communications, 2023).
Where a name gives a salt, the structure may show the parent alone. Read-outs that look alike come from different tables or passages of the source.

Test system: non-senescent control IMR90 ER:RAS cells
Assay: Nuclei count (Hoechst, high content imaging) senolytic assay, OIS model, non-senescent control cells
Type: cell-based, human
Conditions: Homo sapiens; for viability at 0.468 µM: log (dose) [M] -6.33
Description: To test for senolytic activity, we compared the effect of each compound on the total cell number (automated high content image-based analysis of total number of nuclei per well) in non-senescent and senescent IMR90 ER:RAS cultures treated with the top hits from the computational screen (Figs. 2e and 3a–d and Supplementary Fig. 4a–c). The drop in cell number compared to untreated controls is indicated by the nuclei count and reflects cell death[13],[15]. As positive control, we employed ouabain, a cardiac glycoside with well characterised senolytic activity.
We performed experimental validation of the compounds with z-score > 8 (Fig. 2e). […] We employed two cellular models of senescence: one of OIS and a second one of TIS. For the OIS case, we utilised IMR90 ER:RAS cells with 4-OHT at 100 nM. […] For the TIS model, we used A549 cells with etoposide at 100 μM. The exposure of the cells to etoposide lasted 48 h, after which period the cells were cultivated for a further three days with normal media.
IMR90 (CCL-186) human foetal lung fibroblasts and A549 (CCL-185) human lung adenocarcinoma cells were obtained from the American Type Culture Collection (ATCC, Manassas, VA). The cell lines were confirmed to be mycoplasma negative (Lonza MycoAlert, cat #LT07-118). IMR90 ER:RAS is a derivative of IMR90 cells expressing a switchable version of oncogenic H-Ras[84]. IMR90 ER:RAS and A549 cells were maintained in Dulbecco’s Modified Eagle Medium (DMEM, ThermoFisher) supplemented with foetal bovine serum (10%), L-glutamine (2 mM, ThermoFisher), and antibiotic-antimycotic solution (1%, ThermoFisher) and incubated under standard tissue culture conditions (37 °C and 5% CO2). For induction of the senescent phenotype, IMR90-ER:RAS cells were cultured in hydroxytamoxifen (4-OHT) (Sigma) added media at 100 nM final concentration. IMR90 were kept in culture for over 27 passages for replicative senescence. Cells were tested for mycoplasma on a regular basis.
Cells were seeded (50 μL per well) into 384-well plates (IMR90 ER:RAS cells in Nunc Optical Bottom Polybase Microplates [#142761, Thermo Scientific, Rochester, NY] and A549 cells in CELLSTAR Cell Culture Microplates [#781091, Greiner Bio-One, Kremsmünster, Austria]). Cells were incubated under standard tissue culture conditions for 24 h before the addition of compounds. Passage 14 IMR90 ER:RAS cells were seeded at 1300 cells per well in the control condition, and at 1600 cells per well in the senescent case. Passage 34 A549 cells were seeded at 7000 cells per well in the control condition, and at 10,000 cells per well in the senescent case.
Dose response plates were prepared with a DMSO control and a 10-point […] concentration range, and added to the compounds using a D300e digital dispenser (Tecan Trading AG, Switzerland) at a final concentration of between 10 μM and 10 nM. Every screened condition was carried out in triplicate. After 72 h of incubation with exposure to the compounds, cells were fixed by the addition of an equal volume of formaldehyde (8%, 50 μL; #BP531-500, Fisher Bioreagents, Fisher Scientific, Loughborough, Leicestershire) to the existing media, incubated at room temperature (30 min), and washed three times in phosphate-buffered saline (PBS). Cells were then permeabilised in Triton-X100 (0.1%, 50 μL) and incubated at room temperature (30 min) followed by three more washes with PBS.
Cells were stained with Hoechst 33342 for nuclei count (excitation/emission wavelength at 387/447 […], DAPI channel, original concentration at 10 mg/ml, final concentration at 2 μg/ml; H1399, Molecular Probes, Eugene, OR). The staining solution was prepared in bovine serum albumin solution (10%). The staining solution was added to each well (30 μL) and incubated in the dark at room temperature (30 min), followed by three washes with PBS and no final aspiration. Plates were foil sealed.

## C[C@H](CCC(=O)NCCS(=O)(=O)O)[C@H]1CC[C@H]2[C@@H]3[C@H](O)C[C@@H]4C[C@H](O)CC[C@]4(C)[C@H]3C[C@H](O)[C@]12C [Taurocholic acid sodium, taurocholic acid sodium salt hydrate]
IMR-90, 72 h, read-out: Mean % Cell Survival, Control, log (dose) [M] -5, 72 h, mean n=3 (Fig 3C)
  viability at 10 µM: 105%
IMR-90, 72 h, read-out: Mean % Cell Survival, Control, log (dose) [M] -5.33, 72 h, mean n=3 (Fig 3C)
  viability at 4.677 µM: 107%
IMR-90, 72 h, read-out: Mean % Cell Survival, Control, log (dose) [M] -5.66, 72 h, mean n=3 (Fig 3C)
  viability at 2.188 µM: 115%
IMR-90, 72 h, read-out: Mean % Cell Survival, Control, log (dose) [M] -6, 72 h, mean n=3 (Fig 3C)
  viability at 1 µM: 108%
IMR-90, 72 h, read-out: Mean % Cell Survival, Control, log (dose) [M] -6.33, 72 h, mean n=3 (Fig 3C)
  viability at 0.4677 µM: 104%
IMR-90, 72 h, read-out: Mean % Cell Survival, Control, log (dose) [M] -6.66, 72 h, mean n=3 (Fig 3C)
  viability at 0.2188 µM: 95.4%
IMR-90, 72 h, read-out: Mean % Cell Survival, Control, log (dose) [M] -7, 72 h, mean n=3 (Fig 3C)
  viability at 0.1 µM: 81%
IMR-90, 72 h, read-out: Mean % Cell Survival, Control, log (dose) [M] -7.33, 72 h, mean n=3 (Fig 3C)
  viability at 0.04677 µM: 94.8%
IMR-90, 72 h, read-out: Mean % Cell Survival, Control, log (dose) [M] -7.66, 72 h, mean n=3 (Fig 3C)
  viability at 0.02188 µM: 103%
IMR-90, 72 h, read-out: Mean % Cell Survival, Control, log (dose) [M] -8, 72 h, mean n=3 (Fig 3C)
  viability at 0.01 µM: 98.6%
IMR-90, read-out: % Cell Survival, Control cells, log (dose) [M] -5, individual replicates, SUP FIG 4C
  viability at 10 µM: 105%
IMR-90, read-out: % Cell Survival, Control cells, log (dose) [M] -5.33, individual replicates, SUP FIG 4C
  viability at 4.677 µM: 105%
IMR-90, read-out: % Cell Survival, Control cells, log (dose) [M] -5.66, individual replicates, SUP FIG 4C
  viability at 2.188 µM: 122%
IMR-90, read-out: % Cell Survival, Control cells, log (dose) [M] -6.66, individual replicates, SUP FIG 4C
  viability at 0.2188 µM: 98.1%
IMR-90, read-out: % Cell Survival, Control cells, log (dose) [M] -7.66, individual replicates, SUP FIG 4C
  viability at 0.02188 µM: 103%
IMR-90, read-out: % Cell Survival, Control cells, log (dose) [M] -8, individual replicates, SUP FIG 4C
  viability at 0.01 µM: 95%
IMR-90, read-out: % Cell Survival, Control, log (dose) [M] -5
  viability at 10 µM: 101%
IMR-90, read-out: % Cell Survival, Control, log (dose) [M] -5.33
  viability at 4.68 µM: 103%
IMR-90, read-out: % Cell Survival, Control, log (dose) [M] -5.66
  viability at 2.19 µM: 108%
IMR-90, read-out: % Cell Survival, Control, log (dose) [M] -6
  viability at 1 µM: 99.9%
IMR-90, read-out: % Cell Survival, Control
  viability at 0.468 µM: 102%
IMR-90, read-out: % Cell Survival, Control, log (dose) [M] -6.66
  viability at 0.219 µM: 100%
IMR-90, read-out: % Cell Survival, Control, log (dose) [M] -7
  viability at 0.1 µM: 87.4%
IMR-90, read-out: % Cell Survival, Control, log (dose) [M] -7.33
  viability at 0.04677 µM: 102%
IMR-90, read-out: % Cell Survival, Control, log (dose) [M] -7.66
  viability at 0.0219 µM: 97.8%
IMR-90, read-out: % Cell Survival, Control, log (dose) [M] -8
  viability at 0.01 µM: 95.8%

## O=c1cc(-c2ccc(O)cc2)oc2cc(O)c(O)c(O)c12 [Scutellarein, scutellarein]
IMR-90, 72 h, Control, log (dose) [M] -5, 72 h, mean n=3 (Fig 3C), read-out: Mean % Cell Survival
  viability at 10 µM: 97.3%
IMR-90, 72 h, Control, log (dose) [M] -5.33, 72 h, mean n=3 (Fig 3C), read-out: Mean % Cell Survival
  viability at 4.677 µM: 95.7%
IMR-90, 72 h, Control, log (dose) [M] -5.66, 72 h, mean n=3 (Fig 3C), read-out: Mean % Cell Survival
  viability at 2.188 µM: 88.9%
IMR-90, 72 h, Control, log (dose) [M] -6, 72 h, mean n=3 (Fig 3C), read-out: Mean % Cell Survival
  viability at 1 µM: 88.2%
IMR-90, 72 h, Control, log (dose) [M] -6.33, 72 h, mean n=3 (Fig 3C), read-out: Mean % Cell Survival
  viability at 0.4677 µM: 95.4%
IMR-90, 72 h, Control, log (dose) [M] -6.66, 72 h, mean n=3 (Fig 3C), read-out: Mean % Cell Survival
  viability at 0.2188 µM: 109%
IMR-90, 72 h, Control, log (dose) [M] -7, 72 h, mean n=3 (Fig 3C), read-out: Mean % Cell Survival
  viability at 0.1 µM: 118%
IMR-90, 72 h, Control, log (dose) [M] -7.33, 72 h, mean n=3 (Fig 3C), read-out: Mean % Cell Survival
  viability at 0.04677 µM: 130%
IMR-90, 72 h, Control, log (dose) [M] -7.66, 72 h, mean n=3 (Fig 3C), read-out: Mean % Cell Survival
  viability at 0.02188 µM: 117%
IMR-90, 72 h, Control, log (dose) [M] -8, 72 h, mean n=3 (Fig 3C), read-out: Mean % Cell Survival
  viability at 0.01 µM: 121%
IMR-90, Control, log (dose) [M] -5, read-out: % Cell Survival
  viability at 10 µM: 112%
IMR-90, Control, log (dose) [M] -5.33, read-out: % Cell Survival
  viability at 4.68 µM: 101%
IMR-90, Control, log (dose) [M] -5.66, read-out: % Cell Survival
  viability at 2.19 µM: 102%
IMR-90, Control, log (dose) [M] -6, read-out: % Cell Survival
  viability at 1 µM: 108%
IMR-90, Control, read-out: % Cell Survival
  viability at 0.468 µM: 101%
IMR-90, Control, log (dose) [M] -6.66, read-out: % Cell Survival
  viability at 0.219 µM: 107%
IMR-90, Control, log (dose) [M] -7, read-out: % Cell Survival
  viability at 0.1 µM: 107%
IMR-90, Control, log (dose) [M] -7.33, read-out: % Cell Survival
  viability at 0.04677 µM: 102%
IMR-90, Control, log (dose) [M] -7.66, read-out: % Cell Survival
  viability at 0.0219 µM: 99.8%
IMR-90, Control, log (dose) [M] -8, read-out: % Cell Survival
  viability at 0.01 µM: 107%
